How the values were obtained:
Type in all cases: cell-based, human
HT-29 colon cancer cells [1] = assay: Annexin V-FITC/PI flow cytometry apoptosis induction assay; conditions: 24 h; for necrosis (dead cells): 30 μg/mL
Procedure: Quantitative assessment of apoptosis was performed by flow cytometry using an Annexin V-FITC Apoptosis Detection Kit. Briefly, 1 × 10^6 HT-29 cells were seeded per well in six-well plates and incubated for 24 h, followed by the addition of the AMTs dissolved in DMSO (final concentrations of 10, 20, and 30 µg/mL for compounds 1, 2, 5, 6, 7, and 8, and 30, 60, and 90 µg/mL for compounds 3 and 4, and less than 0.05% DMSO) and incubation for 24 h. Curcumin (final concentrations of 50 and 75 μM) was used as positive control. The cells were then washed, harvested with trypsin, and centrifuged at 1500 rpm (5 min, 25 °C). The pellet was resuspended in 195 µL of 1 × Annexin buffer and then stained with 5 μL of Annexin V-FITC and 10 μL of PI for 10 min at room temperature, in the dark. To this mixture 200 μL of 1 × Annexin buffer was added before analysis using a Cytomics FC500 flow cytometer (Beckman Coulter, Indianapolis, IN, USA). Following a gating strategy, flow cytometry plots of size (FS) and complexity (SS) of the HT-29 cells were previously established for the elaboration of a measurement protocol. The normal healthy cells, early apoptosis, late apoptosis, and necrotic populations were represented by annexin V-negative/PI-negative population, annexin V-positive/PI-negative, annexin V-positive/PI-positive and annexin-negative/PI-positive cells, respectively. A total of 10,000 cellular events in each sample were analyzed using DML program.

HT-29 colon cancer cells [2] = assay: Cell cycle analysis by flow cytometry (PI); conditions: 24 h; 30 μg/mL of 1, 2, 5, 6, 7, 8 and 90 μg/mL of 3 and 4 (Figure 4B)
Procedure: HT-29 cells (1 × 10^6 cells/well) were seeded in six-well plates and incubated for 24 h, followed by treatment with AMTs dissolved in DMSO (final concentrations of 10, 20, and 30 µg/mL for compounds 1, 2, 5, 6, 7, and 8, and 30, 60, and 90 µg/mL for compounds 3 and 4, and always below 0.05% DMSO) and 24 h of additional incubation. Colchicine (final concentration of 0.2 μg/mL) was used as positive control. The cells were then washed, harvested with trypsin, and centrifuged at 1500 rpm (5 min, 25 °C). The resulting pellet was fixed with ice-cold 70% ethanol (1 mL/10^6 cells) and the samples were stored at −4°C overnight. After fixation, the cells were washed with PBS, stained with PBS containing 5 mg/mL of RNase A, and incubated for 48 h at 4 °C. Subsequently, 50 μL of 0.1 mg/mL of IP was added and incubated for 1 h at 4 °C. The relative DNA content per cell was analyzed using a Cytomics FC500 flow cytometer (Beckman Coulter, Indianapolis, IN, USA). The data acquisition was performed with the DML program and the analysis of the acquired data with the CXP Software (Beckman Coulter, Indianapolis, IN, USA).

HT-29 cells = assay: Wound migration assay; conditions: 24 h, wound-healing; for inhibition at 10 µg/mL: Homo sapiens, HT-29, read-out: inhibition of cell migration
Procedure: For cell migration assay, HT-29 cells were seeded in six-well culture plates and allowed to grow to 80%–90% confluence for the experiment. After aspirating the medium, similar sized wounds were performed in the monolayer cells using a sterile micropipette tip. Wounded monolayer cells were washed three times with PBS to remove cell debris and then replaced with complete McCoy’s medium. HT-29 cells were treated with the AMTs (10 µg/mL for compounds 1, 2, 5, 6, 7, and 8, and 30 µg/mL for compounds 3 and 4) and incubated for 24h. For the image analysis of the effect of each treatment on cell migration, the wounded area was photographed immediately after scratching and after 24 h. The level of cell migration was determined using NIH Image software (Image J 1.44g, Wayne Rasband, USA) and then expressed as a percentage of wound closure area using the equation: Migration rate (%) = [(wound area at 0 h − wound area at 24 h)/wound area at 0 h] × 100%.

p-ERK1/2 in HT-29 cells = assay: Western blot of phosphorylated ERK1/2; conditions: 24 h; 10 and 20 μg/mL
Procedure: Cells were cultured to 80% confluence at 37 °C. After 24 h of treatment with the compounds (10 and 20 µg/mL for compounds 1, 2, 5, 6, 7, and 8, and 30 and 60 µg/mL for compounds 3 and 4), HT-29 cells were rinsed twice with ice-cold PBS, and then lysed immediately in lysis buffer (250 mM NaCl, 50 mM Tris (pH 7.5), 0.5 mM EDTA, 5 mM EGTA, 8 mM MgCl2, 1 mM PMSF, 0.01 mg/mL pepstatin A, 0.01 mg/mL leupeptin, 0.01 mg/mL aprotinin, 1% Triton X-100). After centrifugation at 12,000 g for 3 min at 4°C to separate the cellular debris, the supernatant was collected and stored at −80°C until use. The protein concentrations were determined using Bio-Rad Protein Assay (BioRad, Richmond, CA, USA), according to the manufacturer’s instructions.
Equal protein content (50 μg) samples of cell lysates were separated on 10% SDS–polyacrylamide gel and transferred to polyvinylidene difluoride membranes (Hybond-P, Amershan Biosciences, Little Chalfont, UK). The membranes were blocked with 5% (w/v) non-fat dry milk in Tris-buffered saline containing 0.1% Tween-20 buffer (pH 7.4) (TBST) for 1 h at room temperature and incubated with agitation with specific antibodies: anti-pERK1/2 (Cell Signaling; 1:1000), anti-pJNK (Cell Signaling; 1:1000), anti-pAKT (Cell Signaling; 1:1000), anti-β-actin (Sigma-Aldrich; 1:500). Membranes were incubated overnight at 4°C with gentle shaking. The secondary antibody was a peroxidase-conjugated goat anti-mouse or -rabbit antibody (1:10,000; DakoCytomation, Carpinteria, CA, USA). After washing the membrane three times in TBST buffer (10 min), the signals were detected using an enhanced chemiluminescence light-detecting kit (Super-Signal West Pico Chemiluminescent Substrate, Pierce, IL, USA), according to the manufacturer’s instructions and exposed to an X-ray film (GE Healthcare Ltd., Amersham, UK). The protein band densities were analyzed and quantified with a Scientific Imaging Systems (Biophotonics ImageJ Analysis Software, National Institute of Mental Health, Bethesda, MD, USA). β-actin was used to confirm the equal loading and transfer of proteins.

COc1c(C)cc(O)cc1/C=C/C(C)(O)CC(=O)/C=C(/C)CCCC(C)C(=O)/C=C/C(C)(C)O (centres unmarked) [Compound 7, cystodione A]
induction of apoptosis or death of HT-29 cells (HT-29 colon cancer cells [1]; 4 tested at 30-90 μg/mL, 7 at 10-30 μg/mL): did not induce neither apoptosis nor death | accumulation of cells at the G2/M phase (cell cycle arrest, words) (HT-29 colon cancer cells [2]): significant | inhibition at 10 µg/mL (HT-29 cells; 10 μg/mL): 30.7% | p-ERK1/2 level vs control (p-ERK1/2 in HT-29 cells): significantly reduced

COc1c(C)cc(O)cc1/C=C/C(C)(O)CC(=O)/C=C(\C)CCCC(C)C(=O)/C=C/C(C)(C)O (centres unmarked) [Compound 8, cystodione B]
necrosis (dead cells) (HT-29 colon cancer cells [1]): 20.12% | accumulation of cells at the G2/M phase (cell cycle arrest, words) (HT-29 colon cancer cells [2]): not significant | inhibition at 10 µg/mL (HT-29 cells; 10 μg/mL): 59.1% | p-ERK1/2 level vs control (p-ERK1/2 in HT-29 cells): significantly reduced

COc1c(C)cc(O)cc1C/C=C(\C)CC(=O)/C=C(\C)CCCC(C)(O)C(=O)/C=C/C(C)(C)O (centres unmarked) [Compound 2, 11-hydroxy-1′-O-methylamentadione]
early apoptotic cells (HT-29 colon cancer cells [1]; 30 μg/mL (Figure 3B)): 1.94% | late apoptotic cells (HT-29 colon cancer cells [1]; 30 μg/mL (Figure 3B)): 12.94% | viability at 30 µg/mL (HT-29 colon cancer cells [1]; Homo sapiens, HT-29, 30 μg/mL (Figure 3B), read-out: viable cells): 57.7% | accumulation of cells at the G2/M phase (cell cycle arrest, words) (HT-29 colon cancer cells [2]): significant | inhibition of cell migration (HT-29 cells; 10 μg/mL): no significant effects | p-ERK1/2 level vs control (p-ERK1/2 in HT-29 cells): significantly reduced

COc1c(C)cc(O)cc1C/C=C(\C)CC(=O)/C=C(\C)CCCC(C)=O [Compound 3, cystomexicone B]
early apoptotic cells (Annexin V+PI-) (HT-29 colon cancer cells [1]; 90 μg/mL): 4.47% | late apoptotic cells (Annexin V+PI+) (HT-29 colon cancer cells [1]; 90 μg/mL): 52.12% | total percentage of apoptotic cells (HT-29 colon cancer cells [1]; 90 μg/mL): 56.6% | accumulation of cells at the G2/M phase (cell cycle arrest, words) (HT-29 colon cancer cells [2]): significant | inhibition of cell migration (HT-29 cells; 30 μg/mL (methods, Figure 5B)): no significant effects

COc1c(C)cc(O)cc1C/C=C(\C)CC(=O)/C=C(/C)CCCC(C)(O)C(=O)/C=C/C(C)(C)O (centres unmarked) [Compound 1, usneoidone Z]
necrosis (dead cells) (HT-29 colon cancer cells [1]): 31.22% | accumulation of cells at the G2/M phase (cell cycle arrest, words) (HT-29 colon cancer cells [2]): significant cell cycle arrest in the G2/M | inhibition at 10 µg/mL (HT-29 cells; 10 μg/mL): 28.4% | p-ERK1/2 level vs control (p-ERK1/2 in HT-29 cells): significantly reduced

Source: paper PMC7143549, “Anticancer Activities of Meroterpenoids Isolated from the Brown Alga Cystoseira usneoides against the Human Colon Cancer Cells HT-29” (Foods, 2020)
